# From patent US9918966B2, “Anti-cancer compositions and methods” (The Penn State Research Foundation, priority 2013, dated 2018)
# Where two headings read alike, the source gives them in different places.
# Key:
# [1] = for Mortality at Day 7: 3 mice/group
# From the text: Number of mice surviving and changes in body weight after 7 days of drug treatment is scored (Table I).
# [2] = system: FF2441 human fibroblast cells; experiment: Cell viability, MTS assay; assay type: cell-based
# Description: (§1) Cell viability, proliferation, apoptosis and cell cycle analysis: Viability and IC50 (μmol/L) of normal human melanocytes, fibroblast and melanoma cells following treatment with inhibitors are measured using the MTS assay (Promega, Madison, Wis.) described in Sharma A, et al., Clin Cancer Res 2009; 15:1674-85; and Madhunapantula S V, et al., Mol Cancer Ther 2008; 7:1297-308. […] IC50 values for each inhibitor in μmol/L for respective cell lines are measured from three independent experiments using GraphPad Prism version 4.01 (GraphPad Software, La Jolla, Calif.).
# (§2) The number of viable cells is measured using MTS and percentage decrease in viability calculated. IC50 values for each inhibitor in μmol/L for respective cell lines are measured from three independent experiments using GraphPad Prism version 4.01 (GraphPad Software, La Jolla, Calif.).
# [3] = system: FOM103 normal human melanocytes; experiment: Cell viability, MTS assay; assay type: cell-based; conditions: Melanocyte
# Description: as §1, §2
# [4] = system: WM115 vertical growth phase melanoma cells; experiment: Cell viability, MTS assay; assay type: cell-based; conditions: Homo sapiens, WM-115
# Description: as §1, §2
# [5] = system: WM35 radial growth phase melanoma cells; experiment: Cell viability, MTS assay; assay type: cell-based; conditions: Homo sapiens
# Description: as §1, §2
# [6] = system: 1205 Lu metastatic melanoma cells; experiment: cells; conditions: Homo sapiens
# Description: as §1, §2
# [7] = system: UACC 903 metastatic melanoma cells; experiment: cells; conditions: Homo sapiens
# Description: as §1, §2
# Caco-2 (Colon) = experiment: IC50 for killing cancer cells; assay type: cell-based; conditions: Homo sapiens
# From the text: (§3) Therapeutic universality of selenocoxib-1-GSH for killing cancer cells is examined by treating pancreatic (MiaPaca-2), breast (MDA-MB-231), prostate (PC-3) or sarcoma (HT-1080) and colon (Caco2) cell. lines with the drug and establishing the IC50 for each cell line, Table III. Selenocoxib-1-GSH kills the various cancer cell lines at 2-3-fold lower concentrations than normal fibroblast cells.
# HT-1080 (Fibro sarcoma) = experiment: IC50 for killing cancer cells; assay type: cell-based; conditions: Homo sapiens
# From the text: as §3
# MDA-MB-231 (Breast) = experiment: IC50 for killing cancer cells; assay type: cell-based; conditions: Homo sapiens
# From the text: as §3
# MiaPaca-2 (Pancreas) = experiment: IC50 for killing cancer cells; assay type: cell-based; conditions: Homo sapiens, MIA PaCa-2
# From the text: as §3
# PC-3 (Prostate) = experiment: IC50 for killing cancer cells; assay type: cell-based; conditions: Homo sapiens
# From the text: as §3
# 1205 Lu melanoma cells = experiment: Western blot analysis; assay type: cell-based, human; conditions: 2.5-50 μmol/L for 48 h
# From the text: (§4) Cell lysates are harvested and processed as described in Sharma A et al., Cancer Res 2006, 66:8200-9. […] Protein lysates are collected for Western blotting. Blots are probed with total and phospho-Akt (Ser473), phospho-PRAS40 (Thr246), phospho-Erk1/2 (Thr202/Tyr204), total and Phospho-Mek1/2 (Ser217) and cleaved PARP from Cell Signaling Technology (Danvers, Mass.). Total PRAS40 from Invitrogen (Carlsbad, Calif.). Total Erk, cyclin D1, p27, Alpha-enolase and secondary antibodies conjugated with horseradish peroxidase from Santa Cruz Biotechnology (Santa Cruz Biotechnology, Santa Cruz, Calif.). COX-1 and COX-2 antibodies were obtained from Cayman Chemical Company, Ann Arbor, Mich. Immunoblots are developed using the enhanced chemiluminescence detection system (Amersham Pharmacia Biotech, Piscataway, N.J.).
# UACC 903 melanoma cells = experiment: Western blot analysis; assay type: cell-based, human; conditions: UACC 903, 2.5-50 μmol/L for 48 h
# From the text: as §4
# [8] = 0.032 μmoles (2.5 PPM) intraperitoneally daily for seven days
compound,measurement,setting,value
Selenocoxib-1,% of weight loss,[1]; [8],14.07%
same,Mortality at Day 7,[1]; [8],0/3
same,% of weight loss,"[1]; 0.032 μmoles (2.5 PPM) intraperitoneally daily for seven days, listed as selenocoxib-1",14%
same,Mortality at Day 7,[1]; 0.064 μmoles (5.0 PPM) intraperitoneally daily for seven days,3/3
same,animal mortality,"[1]; concentrations of 0.032-0.064, after seven days of treatment",100%
"Cc1ccc(-c2cc(C(F)(F)F)nn2-c2ccc(S(N)(=O)=O)cc2)cc1 [Celecoxib, reference compound]",IC50,"[2]; FF2441, 24 h",> 100 µM
same,IC50,"[2]; FF2441, 48 h",> 100 µM
same,IC50,"[2]; FF2441, 72 h",65.3 ± 3.3 µM
same,IC50,"[3]; FOM103, 24 h",> 100 µM
same,IC50,"[3]; FOM103, 48 h",> 100 µM
same,IC50,"[3]; FOM103, 72 h",68 ± 1.2 µM
same,IC50,"[4]; WM115, 24 h",54.4 ± 3.6 µM
same,IC50,"[4]; WM115, 48 h",45.3 ± 2.7 µM
same,IC50,"[4]; WM115, 72 h",41.8 ± 2.9 µM
same,IC50,"[5]; WM35, 24 h",51.3 ± 2.3 µM
same,IC50,"[5]; WM35, 48 h",42.3 ± 1.8 µM
same,IC50,"[5]; WM35, 72 h",37.9 ± 3.3 µM
same,IC50,[6]; 24 h,> 100 µM
same,IC50,[6]; 48 h,83.6 ± 3.3 µM
same,IC50,[6]; 72 h,66.1 ± 3.2 µM
same,IC50,"[7]; UACC-903, 24 h",> 100 µM
same,IC50,"[7]; UACC-903, 48 h",> 100 µM
same,IC50,"[7]; UACC-903, 72 h",76.6 ± 4.4 µM
same,IC50,Caco-2 (Colon),> 100 µM
same,IC50,HT-1080 (Fibro sarcoma),> 100 µM
same,IC50,MDA-MB-231 (Breast),> 100 µM
same,IC50,MiaPaca-2 (Pancreas),> 100 µM
same,IC50,PC-3 (Prostate),> 100 µM
"N#CC(=C(/N)Sc1ccccc1N)/C(C#N)=C(\N)Sc1ccccc1N [U0126, reference compound]",COX-1 expression,1205 Lu melanoma cells,without affecting COX-1
same,COX-2 expression,1205 Lu melanoma cells,reduces the expression of COX-2
same,Levels of pErk1/2,1205 Lu melanoma cells,similarly decrease
same,COX-1 expression,UACC 903 melanoma cells,without affecting COX-1
same,COX-2 expression,UACC 903 melanoma cells,reduces the expression of COX-2
same,Levels of pErk1/2,UACC 903 melanoma cells,similarly decrease
